Measurements taken from publication PMC7170309, “Imidazopyridine-fused [1,3]diazepinones: modulations of positions 2 to 4 and their impacts on the anti-melanoma activity” (Journal of Enzyme Inhibition and Medicinal Chemistry, 2020).

Tests used:
Assay type in all cases: cell-based, human
Details in all cases: 10 µM, 48 h; for G%: growth vs untreated control
HOP-92 = test: NCI-60 SRB assay, HOP-92 (NSCLC);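 for Mean G% - G%: mean growth across the NCI-60 panel minus this line's growth with positive meaning more sensitive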
Experimental: (§1) Primary anticancer assay was performed on a panel of 60 human cancer cell lines derived from nine neoplastic diseases, in accordance with the protocol of the Drug Evaluation Branch, National Cancer Institute, Bethesda, Maryland, USA[22]. Cells were incubated with tested compounds at 10 µM for 48 h. The growth percentage was evaluated spectrophotometrically using a protein binding dye, SRB. Results for each tested compound were reported as the percent of growth of treated cells when compared to untreated control cells.
(§2) To better compare the activity profile of these two series of compounds, compounds 5 and 8 were selected and then evaluated towards a panel of sixty cancer cell lines corresponding to nine different cancer types, i.e. leukaemia, melanoma, as well as lung, colon, central nervous system, ovarian, renal, prostate and breast cancers (NCI evaluation). Indeed, it is now well established that the growth inhibitory patterns of anticancer drugs against the NCI-60 cell line panel correlated well with their modes of action. For example, compounds that bind to tubulin have similar growth inhibition patterns regardless of which site on tubulin they bind[30]. […] Compounds were tested using the sulforhodamine B (SRB) assay that provides a direct cell density index. The amount of dye incorporated by the cells increases with the increase of the total protein biomass. Cells were incubated for 48 h with compounds at 10 µM concentration, then cell growth was evaluated spectrophotometrically and presented as the percent of untreated control cells. Values of the most sensitive cell lines were compared to those obtained with JMV5038 (Figure 4, for all data see SI).

LOX IMVI = test: NCI-60 SRB assay, LOX IMVI (Melanoma)
Experimental: as §1, §2

SK-MEL-5 = test: NCI-60 SRB assay, SK-MEL-5 (Melanoma)
Experimental: as §1, §2

OVCAR-5 = test: NCI-60 SRB assay, OVCAR-5 (Ovarian Cancer);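 for Mean G% - G%: mean growth across the NCI-60 panel minus this line's growth with positive meaning more sensitive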
Experimental: as §1, §2

SK-OV-3 = test: NCI-60 SRB assay, SK-OV-3 (Ovarian Cancer)
Experimental: as §1, §2

NCI/ADR-RES = test: NCI-60 SRB assay, NCI/ADR-RES (Ovarian Cancer);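 for Mean G% - G%: mean growth across the NCI-60 panel minus this line's growth with positive meaning more sensitive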
Experimental: as §1, §2

T-47D = test: NCI-60 SRB assay, T-47D (Breast Cancer)
Experimental: as §1, §2

HT29 = test: NCI-60 SRB assay, HT29 (Colon Cancer);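 for Mean G% - G%: mean growth across the NCI-60 panel minus this line's growth with positive meaning more sensitive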
Experimental: as §1, §2

OVCAR-3 = test: NCI-60 SRB assay, OVCAR-3 (Ovarian Cancer)
Experimental: as §1, §2

MDA-MB-231 = test: NCI-60 SRB assay, MDA-MB-231 (Breast Cancer)
Experimental: as §1, §2

DU-145 = test: NCI-60 SRB assay, DU-145 (Prostate Cancer)
Experimental: as §1, §2

SNB-75 = test: NCI-60 SRB assay, SNB-75 (CNS Cancer)
Experimental: as §1, §2

KM12 = test: NCI-60 SRB assay, KM12 (Colon Cancer)
Experimental: as §1, §2

COLO 205 = test: NCI-60 SRB assay, COLO 205 (Colon Cancer)
Experimental: as §1, §2

SK-MEL-2 = test: NCI-60 SRB assay, SK-MEL-2 (Melanoma)
Experimental: as §1, §2

NCI-H322M = test: NCI-60 SRB assay, NCI-H322M (NSCLC)
Experimental: as §1, §2

SF-539 = test: NCI-60 SRB assay, SF-539 (CNS Cancer)
Experimental: as §1, §2

SF-295 = test: NCI-60 SRB assay, SF-295 (CNS Cancer)
Experimental: as §1, §2

786-0 = test: NCI-60 SRB assay, 786-0 (Renal Cancer)
Experimental: as §1, §2

NCI-H23 = test: NCI-60 SRB assay, NCI-H23 (NSCLC)
Experimental: as §1, §2

SNB-19 = test: NCI-60 SRB assay, SNB-19 (CNS Cancer)
Experimental: as §1, §2

ACHN = test: NCI-60 SRB assay, ACHN (Renal Cancer)
Experimental: as §1, §2

CAKI-1 = test: NCI-60 SRB assay, CAKI-1 (Renal Cancer)
Experimental: as §1, §2

UO-31 = test: NCI-60 SRB assay, UO-31 (Renal Cancer)
Experimental: as §1, §2

A498 = test: NCI-60 SRB assay, A498 (Renal Cancer)
Experimental: as §1, §2

TK-10 = test: NCI-60 SRB assay, TK-10 (Renal Cancer)
Experimental: as §1, §2

NCI-H460 = test: NCI-60 SRB assay, NCI-H460 (NSCLC)
Experimental: as §1, §2

MALME-3M = test: NCI-60 SRB assay, MALME-3M (Melanoma)
Experimental: as §1, §2

IGROV1 = test: NCI-60 SRB assay, IGROV1 (Ovarian Cancer)
Experimental: as §1, §2

SN12C = test: NCI-60 SRB assay, SN12C (Renal Cancer)
Experimental: as §1, §2

HCC-2998 = test: NCI-60 SRB assay, HCC-2998 (Colon Cancer)
Experimental: as §1, §2

OVCAR-8 = test: NCI-60 SRB assay, OVCAR-8 (Ovarian Cancer)
Experimental: as §1, §2

OVCAR-4 = test: NCI-60 SRB assay, OVCAR-4 (Ovarian Cancer)
Experimental: as §1, §2

## [N-]=[N+]=NCCCC[C@@H]1NC(c2ccc(Br)cc2)=Nc2nc3ccccn3c2C1=O [Compound 16, (4S)-4-(4-azidobutyl)-2-(4-bromophenyl)-3,4-dihydro-5H-pyrido[1’,2’:1,2]imidazo[4,5-d][1,3]diazepin-5-one]
HOP-92
  Mean G% - G%: -11,05%
  G%: 102,82%
LOX IMVI
  Mean G% - G%: 5,56%
  G%: 86,21%
SK-MEL-5
  Mean G% - G%: 3,83%
  G%: 87,94%
OVCAR-5
  Mean G% - G%: -11,70%
  G%: 103,47%
SK-OV-3
  Mean G% - G%: 5,78%
  G%: 85,99%
NCI/ADR-RES
  Mean G% - G%: -9,49%
  G%: 101,26%
T-47D
  Mean G% - G%: 10,17%
  G%: 81,60%
HT29
  Mean G% - G%: -14,13%
  G%: 105,90%
OVCAR-3
  Mean G% - G%: -11,51%
  G%: 103,28%
MDA-MB-231
  Mean G% - G%: 16,73%
  G%: 75,04%
DU-145
  Mean G% - G%: -10,18%
  G%: 101,95%
SNB-75
  Mean G% - G%: 4,12%
  G%: 87,65%
KM12
  Mean G% - G%: 10,11%
  G%: 81,66%
COLO 205
  Mean G% - G%: -15,42%
  G%: 107,19%
SK-MEL-2
  Mean G% - G%: -16,61%
  G%: 108,38%
NCI-H322M
  Mean G% - G%: 0,41%
  G%: 91,36%
SF-539
  Mean G% - G%: -6,24%
  G%: 98,01%
SF-295
  Mean G% - G%: -4,02%
  G%: 95,79%
786-0
  Mean G% - G%: 0,98%
  G%: 90,79%
NCI-H23
  Mean G% - G%: -7,34%
  G%: 99,11%
SNB-19
  Mean G% - G%: -3,35%
  G%: 95,12%
ACHN
  Mean G% - G%: 3,57%
  G%: 88,20%
CAKI-1
  Mean G% - G%: 7,26%
  G%: 84,51%
UO-31
  Mean G% - G%: 27,99%
  G%: 63,78%
A498
  Mean G% - G%: 8,90%
  G%: 82,87%
TK-10
  Mean G% - G%: -38,14%
  G%: 129,91%
NCI-H460
  Mean G% - G%: 0,98%
  G%: 90,79%
MALME-3M
  Mean G% - G%: -22,73%
  G%: 114,50%
IGROV1
  Mean G% - G%: 70,16%
  G%: 21,61%
SN12C
  Mean G% - G%: -4,64%
  G%: 96,41%
HCC-2998
  Mean G% - G%: -20,61%
  G%: 112,38%
OVCAR-8
  Mean G% - G%: 6,78%
  G%: 84,99%
OVCAR-4
  Mean G% - G%: -2,91%
  G%: 94,68%

## C[C@@H]1NC(c2ccc(N=[N+]=[N-])cc2)=Nc2nc3ccccn3c2C1=O [Compound 5, (4S)-4-methyl-2-(4-azidophenyl)-3,4-dihydro-5H-pyrido[1’,2’:1,2]imidazo[4,5-d][1,3]diazepin-5-one]
HOP-92
  Mean G% - G%: -17,00%
  G%: 102,26%
LOX IMVI
  Mean G% - G%: 4,81%
  G%: 80,45%
SK-MEL-5
  Mean G% - G%: 14,40%
  G%: 70,86%
OVCAR-5
  Mean G% - G%: -22,84%
  G%: 108,10%
SK-OV-3
  Mean G% - G%: -1,19%
  G%: 86,45%
NCI/ADR-RES
  Mean G% - G%: 11,92%
  G%: 73,34%
T-47D
  Mean G% - G%: 8,29%
  G%: 76,97%
HT29
  Mean G% - G%: 10,46%
  G%: 74,80%
OVCAR-3
  Mean G% - G%: -12,28%
  G%: 97,54%
MDA-MB-231
  Mean G% - G%: 4,91%
  G%: 80,35%
DU-145
  Mean G% - G%: -18,38%
  G%: 103,64%
SNB-75
  Mean G% - G%: 14,91%
  G%: 70,35%
KM12
  Mean G% - G%: 27,28%
  G%: 57,98%
COLO 205
  Mean G% - G%: 5,95%
  G%: 79,31%
SK-MEL-2
  Mean G% - G%: -9,12%
  G%: 94,38%
NCI-H322M
  Mean G% - G%: -10,63%
  G%: 95,89%
SF-539
  Mean G% - G%: -2,57%
  G%: 87,83%
SF-295
  Mean G% - G%: -8,18%
  G%: 93,44%
786-0
  Mean G% - G%: -9,88%
  G%: 95,14%
NCI-H23
  Mean G% - G%: -1,81%
  G%: 87,07%
SNB-19
  Mean G% - G%: -4,44%
  G%: 89,70%
ACHN
  Mean G% - G%: 0,49%
  G%: 84,77%
CAKI-1
  Mean G% - G%: 10,49%
  G%: 74,77%
UO-31
  Mean G% - G%: 15,67%
  G%: 69,59%
A498
  Mean G% - G%: -14,16%
  G%: 99,42%
TK-10
  Mean G% - G%: -48,01%
  G%: 133,27%
NCI-H460
  Mean G% - G%: -8,41%
  G%: 93,67%
MALME-3M
  Mean G% - G%: 3,28%
  G%: 81,98%
IGROV1
  Mean G% - G%: 10,76%
  G%: 74,50%
SN12C
  Mean G% - G%: -18,28%
  G%: 103,54%
HCC-2998
  Mean G% - G%: 3,82%
  G%: 81,44%
OVCAR-8
  Mean G% - G%: -16,08%
  G%: 101,34%
OVCAR-4
  Mean G% - G%: -3,32%
  G%: 88,58%

## C[C@@H]1NC(c2ccc(Br)cc2)=Nc2nc3ccccn3c2C1=O [JMV5038]
HOP-92
  Mean G% - G%: -5,24%
  G%: 59,48%
LOX IMVI
  Mean G% - G%: 1,80%
  G%: 52,44%
SK-MEL-5
  Mean G% - G%: 22,34%
  G%: 31,90%
OVCAR-5
  Mean G% - G%: -28,14%
  G%: 82,38%
SK-OV-3
  Mean G% - G%: -17,78%
  G%: 72,02%
NCI/ADR-RES
  Mean G% - G%: 14,87%
  G%: 39,37%
T-47D
  Mean G% - G%: -12,99%
  G%: 67,23%
HT29
  Mean G% - G%: 36,72%
  G%: 17,52%
OVCAR-3
  Mean G% - G%: 36,95%
  G%: 17,29%
MDA-MB-231
  Mean G% - G%: 1,53%
  G%: 52,71%
DU-145
  Mean G% - G%: -33,50%
  G%: 87,74%
SNB-75
  Mean G% - G%: 4,08%
  G%: 50,16%
KM12
  Mean G% - G%: 24,69%
  G%: 29,55%
COLO 205
  Mean G% - G%: 27,91%
  G%: 26,33%
SK-MEL-2
  Mean G% - G%: 6,87%
  G%: 47,37%
NCI-H322M
  Mean G% - G%: -19,71%
  G%: 73,95%
SF-539
  Mean G% - G%: -20,40%
  G%: 74,64%
SF-295
  Mean G% - G%: 13,36%
  G%: 40,88%
786-0
  Mean G% - G%: -28,86%
  G%: 83,10%
NCI-H23
  Mean G% - G%: 0,57%
  G%: 53,67%
SNB-19
  Mean G% - G%: -28,38%
  G%: 82,62%
ACHN
  Mean G% - G%: -14,97%
  G%: 69,21%
CAKI-1
  Mean G% - G%: 10,09%
  G%: 44,15%
UO-31
  Mean G% - G%: -7,77%
  G%: 62,01%
A498
  Mean G% - G%: -15,64%
  G%: 69,88%
TK-10
  Mean G% - G%: -55,42%
  G%: 109,66%
NCI-H460
  Mean G% - G%: 21,74%
  G%: 32,50%
MALME-3M
  Mean G% - G%: 2,49%
  G%: 51,75%
IGROV1
  Mean G% - G%: 11,16%
  G%: 43,08%
SN12C
  Mean G% - G%: -37,53%
  G%: 91,77%
HCC-2998
  Mean G% - G%: -14,80%
  G%: 69,04%
OVCAR-8
  Mean G% - G%: -18,28%
  G%: 72,52%
OVCAR-4
  Mean G% - G%: -23,22%
  G%: 77,46%
